Experimental data published in patent US8802597B2, “Herbicidal pyrimidines” (E I du Pont de Nemours and Company, priority 2003, dated 2014).

Assays:
Assay type in all cases: in vivo
[1] = system: common groundsel (Senecio vulgaris); assay: Test G pre/postemergence
How it was run: (§1)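 Visual scores from 0 (no effect) to 100 (complete control) were assigned relative to untreated controls 12 to 21 days after treatment. Compounds, formulated in a non-phytotoxic solvent mixture with surfactant, were applied preemergence to planted seed or postemergence to plants at the 1- to 4-leaf stage (2 to 18 cm).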

[2] = system: Canada horseweed (Conyza canadensis); assay: Test G pre/postemergence
How it was run: as §1

[3] = system: common sowthistle (Sonchus oleraceous); assay: Test G pre/postemergence
How it was run: as §1

[4] = system: purple nutsedge (Cyperus rotundus); assay: Test G pre/postemergence
How it was run: as §1

[5] = system: sulfonylurea herbicide-resistant (SU-resistant) catchweed bedstraw (GALAP; Galium aparine); assay: Test K postemergence; conditions: 15 days
Method: Seeds of plant species selected from sulfonylurea herbicide-susceptible (SU-susceptible) and sulfonylurea herbicide-resistant (SU-resistant) catchweed bedstraw (GALAP; Galium aparine) and wheat (TRZAW; Triticum aestivum) were treated with postemergence applications of test chemicals formulated in a non-phytotoxic solvent mixture which included a surfactant. Plants were treated at the 2-3 leaf stage and 2 whorl stage for wheat and catchweed bedstraw, respectively. Treated plants and controls were maintained in a controlled growth environment for 15 days after which time all species were compared to controls and visually evaluated. Plant response ratings, summarized in Table K, are based on a scale of 0 to 100 where 0 is no effect and 100 is complete control. A dash (-) response means no test result.

[6] = system: sugarcane (Saccharum officinarum); assay: Test G sugarcane pre/postemergence
Text: Also at a different time, seed pieces (nodes) of sugarcane (Saccharum officinarum) were planted and treated preemergence and/or postemergence with some of the test chemicals formulated in the same manner. Treated plants and controls were maintained in a greenhouse for 14 days, after which time the treated plants were compared to controls and visually evaluated.
(§2) Plant response ratings, summarized in Table G, are based on a scale of 0 to 100 where 0 is no effect and 100 is complete control. A dash (-) response means no test result.

[7] = system: olive (Olea europaea) trees; assay: Test G post-directed application; conditions: 1500 g ai/ha, scale 0 to 100
Method: (§3) At a different time, established container-grown grape (Vitus vinifera) vines, and olive (Olea europaea) and orange (Citrus sinensis) trees were treated with some of the test chemicals formulated in the same manner and applied to the soil surface and the lower 5 cm of the plant vines or trunks (post-directed application). Plants ranged in height from 30 to 100 cm. The applications were made using a hand sprayer delivering a volume of 990 L/ha. Treated plants and controls were maintained in a greenhouse for 28 days, after which time the treated plants were compared to controls and visually evaluated.
as §2

[8] = system: grape (Vitus vinifera) vines; assay: Test G post-directed application; conditions: 1500 g ai/ha, scale 0 to 100
Method: as §3, §2

[9] = system: orange (Citrus sinensis) trees; assay: Test G post-directed application; conditions: 1500 g ai/ha, scale 0 to 100
Method: as §3, §2

[10] = Postemergence, 250 g ai/ha, scale 0 to 100
[11] = Postemergence, 500 g ai/ha, scale 0 to 100
[12] = Postemergence, 62 g ai/ha, scale 0 to 100
[13] = Postemergence, 125 g ai/ha, scale 0 to 100
[14] = Postemergence, 375 g ai/ha, scale 0 to 100
[15] = Preemergence, 62 g ai/ha, scale 0-100
[16] = Preemergence, 125 g ai/ha, scale 0-100
[17] = Preemergence, 250 g ai/ha, scale 0-100
[18] = Preemergence, 500 g ai/ha, scale 0 to 100
[19] = Preemergence, 375 g ai/ha, scale 0 to 100
[20] = Preemergence, 500 g ai/ha, scale 0-100

CCOC(=O)c1nc(C2CC2)nc(N)c1Br [Compound 1, ethyl 6-amino-5-bromo-2-cyclopropyl-4-pyrimidinecarboxylate]
Plant response rating, Groundsel [1, 10]: 95 | Plant response rating, Groundsel [1, 11]: 100 | Plant response rating, Groundsel [1, 12]: 60 | Plant response rating, Groundsel [1, 13]: 95 | Plant response rating, Groundsel [1, 14]: 100 | Plant response rating, Groundsel [1, 15]: 60 | Plant response rating, Groundsel [1, 16]: 100 | Plant response rating, Groundsel [1, 17]: 100 | Plant response rating, Groundsel [1, 18]: 100 | Plant response rating, Groundsel [1, 19]: 100 | Plant response rating, Horseweed [2, 10]: 100 | Plant response rating, Horseweed [2, 11]: 100 | Plant response rating, Horseweed [2, 13]: 70 | Plant response rating, Horseweed [2, 14]: 100 | Plant response rating, Horseweed [2, 15]: 95 | Plant response rating, Horseweed [2, 16]: 95 | Plant response rating, Horseweed [2, 17]: 100 | Plant response rating, Horseweed [2, 18]: 100 | Plant response rating, Horseweed [2, 19]: 100 | Plant response rating, Sowthistle [3, 10]: 95 | Plant response rating, Sowthistle [3, 11]: 100 | Plant response rating, Sowthistle [3, 12]: 95 | Plant response rating, Sowthistle [3, 13]: 95 | Plant response rating, Sowthistle [3, 14]: 95 | Plant response rating, Sowthistle [3, 15]: 95 | Plant response rating, Sowthistle [3, 16]: 100 | Plant response rating, Sowthistle [3, 17]: 100 | Plant response rating, Sowthistle [3, 20]: 100 | Plant response rating, Sowthistle [3, 18]: 100 | Plant response rating, Nutsedge, Purple [4, 10]: 20 | Plant response rating, Nutsedge, Purple [4, 11]: 30 | Plant response rating, Nutsedge, Purple [4, 13]: 10 | Plant response rating, Nutsedge, Purple [4, 14]: 30 | Plant response rating, Nutsedge, Purple [4, 15]: 10 | Plant response rating, Nutsedge, Purple [4, 16]: 100 | Plant response rating, Nutsedge, Purple [4, 17]: 100 | Plant response rating, Nutsedge, Purple [4, 20]: 100 | Plant response rating, Nutsedge, Purple [4, 18]: 100 | Plant response rating (0 to 100 scale) ([5]; 4 g a.i./ha): 100 | Plant response rating (0 to 100 scale) ([5]; 8 g a.i./ha): 100 | Plant response rating (0 to 100 scale) ([5]; 16 g a.i./ha): 100 | Plant response rating (0 to 100 scale) ([5]; 31 g a.i./ha): 100 | Plant response rating (0 to 100 scale) ([5]; 62 g a.i./ha): 100 | Plant response rating (0 to 100 scale) ([5]; 125 g a.i./ha): 100 | Plant response rating, Sugarcane [6, 10]: 13 | Plant response rating, Sugarcane [6, 11]: 38 | Plant response rating, Sugarcane ([6]; Postemergence, 31 g ai/ha, scale 0 to 100): 0 | Plant response rating, Sugarcane [6, 12]: 0 | Plant response rating, Sugarcane [6, 13]: 3 | Plant response rating, Sugarcane [6, 15]: 0 | Plant response rating, Sugarcane [6, 16]: 0 | Plant response rating, Sugarcane [6, 17]: 0 | Plant response rating, Sugarcane ([6]; Preemergence, 375 g ai/ha, scale 0-100): 0 | Plant response rating, Olive [7]: 50 | Plant response rating, Grape [8]: 100 | Plant response rating, Orange [9]: 50
